Calls of active or inactive are those of the source. The rule behind the calls is not given here.
How the values were obtained:
[1] = test system: Plasmodium falciparum; assay: Antiplasmodial activity against chloroquine sensitive Plasmodium falciparum 3D7 infected in human erythrocytes incubated for 72 hrs by SYBR Green1-based fluorescence analysis; assay type: functional, organism-based; conditions: 3D7, 72 h
[2] = test system: Plasmodium falciparum; assay: Antiplasmodial activity against chloroquine resistant Plasmodium falciparum K1 infected in human erythrocytes incubated for 72 hrs by SYBR Green1-based fluorescence analysis; assay type: functional, organism-based; conditions: K1, 72 h
[3] = Cytotoxicity against monkey kidney Vero cells by resazurin assay; assay type: cell-based; conditions: chlorocebus sabaeus
[4] = Selectivity index, ratio of CC50 for monkey kidney VERO cells to IC50 for chloroquine sensitive Plasmodium falciparum 3D7 infected in human erythrocytes; assay type: functional
[5] = Selectivity index, ratio of CC50 for monkey kidney VERO cells to IC50 for chloroquine resistant Plasmodium falciparum K1 infected in human erythrocytes; assay type: functional
[6] = Resistance index, ratio of IC50 for chloroquine resistant Plasmodium falciparum K1 infected in human erythrocytes to IC50 for chloroquine sensitive Plasmodium falciparum 3D7 infected in human erythrocytes; assay type: functional
[7] = test system: Plasmodium yoelii nigeriensis; assay: Antiplasmodial activity against multidrug-resistant Plasmodium yoelii nigeriensis infected in Swiss mouse assessed as suppression of parasitaemia at 100 mg/kg, po for 4 days by Geimsa-staining based analysis; assay type: functional; conditions: 96 h
[8] = test system: Mus musculus; assay: Toxicity in multidrug-resistant Plasmodium yoelii nigeriensis infected Swiss mouse assessed as mouse survival at 100 mg/kg/day, po for 4 days; assay type: organism-based; conditions: in vivo, 96 h
[9] = test system: MCF7; assay: Upregulation of p53 level in human MCF7 cells at antiplasmodial IC50 after 48 hrs by immnublotting method; assay type: functional, cell-based; conditions: TDE = time-dependent effect
[10] = test system: MCF7; assay: Induction of p53 protein expression in human MCF7 cells at antiplasmodial IC50 after 36 hrs by luciferase reporter assay relative to control; assay type: functional

| SMILES | IC50 [1] | IC50 [2] | CC50 [3] | Ratio CC50/IC50 [4] | Ratio CC50/IC50 [5] | Ratio IC50 [6] | inhibition in vivo at 100 mg/kg [7] | Activity [8] | Activity [9] | Activity [10] |
| --- | --- | --- | --- | --- | --- | --- | --- | --- | --- | --- |
| Cc1ccc(NCC(O)(c2ccc(Cl)cc2)c2nnn(Cc3ccccc3)c2-c2ccccc2)cc1C (stereo not drawn) | 2580 nM | 2700 nM | > 500000 nM | >193.79 | >185.18 | 1.04 | – | – | – | – |
| Cc1ccc(C(O)(CNc2ccc(C)c(C)c2)c2nnn(Cc3ccccc3)c2-c2ccc(Cl)cc2)cc1 (stereo not drawn) | 1780 nM | 2690 nM | > 500000 nM | >280.89 | >185.87 | 1.51 | – | – | – | – |
| OC(CNc1ccc(F)cc1)(c1ccc(Cl)cc1)c1nnn(Cc2ccccc2)c1-c1ccccc1 (stereo not drawn) | 3310 nM | 3570 nM | > 500000 nM | >151.05 | >140.05 | 1.07 | – | – | – | – |
| CC(C)c1ccc(-c2c(C(O)(CNc3ccc(F)cc3)c3ccc(Cl)cc3)nnn2Cc2ccccc2)cc1 (stereo not drawn) | 1580 nM | 1670 nM | > 500000 nM | >316.45 | >299.4 | 1.05 | – | – | – | – |
| OC(CNc1ccc2c(c1)OCO2)(c1ccc(Cl)cc1)c1nnn(Cc2ccccc2)c1-c1ccc(Cl)cc1 (stereo not drawn) | 2730 nM | 2560 nM | > 500000 nM | >183.1 | >195.3 | 0.93 | – | – | – | – |
| OC(CNc1ccc(F)c(F)c1)(c1ccc(Cl)cc1)c1nnn(Cc2ccccc2)c1-c1ccc(Cl)cc1 (stereo not drawn) | 2150 nM | 500 nM | > 500000 nM | >232.55 | >1000 | 0.23 | 89.9% | Non-toxic | – | – |
| OC(CNc1ccc(Cl)cc1)(c1ccc(Cl)cc1)c1nnn(Cc2ccccc2)c1-c1ccc(F)cc1 (stereo not drawn) | 2850 nM | 2060 nM | > 500000 nM | >175.43 | >242.71 | 0.72 | – | – | – | – |
| OC(CNc1ccc(F)cc1)(c1ccc(Cl)cc1)c1nnn(Cc2ccccc2)c1-c1ccc(Br)cc1 (stereo not drawn) | 3210 nM | 3230 nM | > 500000 nM | >155.76 | >154.79 | 1 | – | – | – | – |
| COc1cc(NCC(O)(c2ccc(Cl)cc2)c2nnn(Cc3ccccc3)c2-c2ccc(Cl)cc2)ccc1Br (stereo not drawn) | 1650 nM | 1530 nM | > 500000 nM | >303.3 | >326.29 | 0.92 | – | – | – | – |
| OC(CNc1ccccc1Br)(c1ccc(Cl)cc1)c1nnn(Cc2ccccc2)c1-c1ccc(Br)cc1 (stereo not drawn) | 11600 nM | 8610 nM | > 500000 nM | >43.21 | >58.07 | 0.74 | – | – | – | – |
| CCN(CC)CCCC(C)Nc1ccnc2cc(Cl)ccc12 (stereo not drawn) [CHLOROQUINE PHOSPHATE] | – | – | > 500000 nM | – | – | – | – | – | – | – |
| OC(CNc1ccc(F)cc1)(c1ccc(Br)cc1)c1nnn(Cc2ccccc2)c1-c1ccccc1 (stereo not drawn) | 2710 nM | 4590 nM | > 500000 nM | >184.5 | >108.9 | 1.69 | – | – | – | – |
| OC(CNc1ccc(Br)cc1)(c1ccc(Cl)cc1)c1nnn(Cc2ccccc2)c1-c1ccccc1 (stereo not drawn) | 1950 nM | 1870 nM | > 500000 nM | >256.41 | >267.37 | 0.95 | – | – | – | – |
| OC(CNc1ccc(Br)cc1)(c1ccc(Cl)cc1)c1nnn(Cc2ccccc2)c1-c1ccc(Br)cc1 (stereo not drawn) | 870 nM | 2040 nM | > 500000 nM | >574.71 | >233.64 | 2.45 | 27.2% | Non-toxic | – | – |
| OC(CNc1ccc(Br)cc1)(c1ccc(Br)cc1)c1nnn(Cc2ccccc2)c1-c1ccccc1 (stereo not drawn) | 1650 nM | 500 nM | > 500000 nM | >303.03 | >1000 | 0.3 | 16.8% | Non-toxic | tde | Active |
| OC(CNc1ccccc1Br)(c1ccc(Cl)cc1)c1nnn(Cc2ccccc2)c1-c1ccc(F)cc1 (stereo not drawn) | 9090 nM | 8460 nM | > 500000 nM | >55 | >59.1 | 0.93 | – | – | – | – |
| OC(CNc1ccc(F)cc1)(c1ccc(Cl)cc1)c1nnn(Cc2ccccc2)c1-c1ccc(F)cc1 (stereo not drawn) | 3870 nM | 3290 nM | > 500000 nM | >129.19 | >151.97 | 0.85 | – | – | – | – |
| OC(CNc1ccc(Br)cc1)(c1ccc(Cl)cc1)c1nnn(Cc2ccccc2)c1-c1ccc(F)cc1 (stereo not drawn) | 1100 nM | 2010 nM | > 500000 nM | >454.54 | >248.75 | 1.82 | 64.6% | Non-toxic | – | Active |
| Cc1ccc(NCC(O)(c2ccc(Br)cc2)c2nnn(Cc3ccccc3)c2-c2ccccc2)cc1C (stereo not drawn) | 2720 nM | 3480 nM | > 500000 nM | >183.8 | >143.6 | 1.27 | – | – | – | – |
| OC(CNc1cccc2ccccc12)(c1ccc(Cl)cc1)c1nnn(Cc2ccccc2)c1-c1ccc(Cl)cc1 (stereo not drawn) | 1330 nM | 1230 nM | 290000 nM | 217.59 | 235.39 | 0.92 | – | – | tde | Active |
| Cc1ccc(NCC(O)(c2ccc(Cl)cc2)c2nnn(Cc3ccccc3)c2-c2ccc(F)cc2)cc1C (stereo not drawn) | 2670 nM | 2800 nM | > 500000 nM | >187.26 | >178.57 | 1.04 | – | – | – | – |
| OC(CNc1ccc(Br)cc1)(c1ccc(Cl)cc1)c1nnn(Cc2ccccc2)c1-c1ccc(Cl)cc1 (stereo not drawn) | 1590 nM | 1410 nM | > 500000 nM | >314.4 | >354.6 | 0.88 | – | – | – | – |
| Cc1ccc(NCC(O)(c2ccc(Cl)cc2)c2nnn(Cc3ccccc3)c2-c2ccc(Cl)cc2)cc1C (stereo not drawn) | 2240 nM | 3180 nM | > 500000 nM | 183.15 | 195.31 | 1.41 | – | – | – | – |
| OC(CNc1ccc(Br)cc1)(c1ccc(Cl)cc1)c1nnn(Cc2ccc(Br)cc2)c1-c1ccc(Cl)cc1 (stereo not drawn) | 2420 nM | 1680 nM | > 500000 nM | >206.61 | >297.61 | 0.69 | – | – | – | – |
| OC(CNc1ccc(I)cc1)(c1ccc(Cl)cc1)c1nnn(Cc2ccccc2)c1-c1ccc(Cl)cc1 (stereo not drawn) | 1480 nM | 1470 nM | > 500000 nM | >337.83 | >340.1 | 0.99 | – | – | – | – |
